# Reference: patent US20240109917A1 (ACTELION PHARMACEUTICALS LTD, priority 2020, published 2024)
# Molecular target: His6-TEV-PDGFRβ (557-1016) (Homo sapiens (Human), UniProt P09619)
# Assay: PDGFRβ HTRF Assay
# Type: biochemical
# Details: read-out: PDGFR HTRF IC50
# Summary of the method: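 Human PDGFRβ (557-1016) pre-incubated with compound for 30 min at RT in pH 7.5 HEPES/MgCl2/EGTA/Brij-35/DTT buffer. Reaction started with ATP and TK-biotin peptide, run 3 h at RT, then quenched with EDTA-containing Eu-cryptate antibody/streptavidin-XL665. HTRF 665/620 nm ratio read after 60 min; percent inhibition relative to DMSO and 10 μM imatinib controls.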
# Chain of His6-TEV-PDGFRβ (557-1016) (P09619 557-1016): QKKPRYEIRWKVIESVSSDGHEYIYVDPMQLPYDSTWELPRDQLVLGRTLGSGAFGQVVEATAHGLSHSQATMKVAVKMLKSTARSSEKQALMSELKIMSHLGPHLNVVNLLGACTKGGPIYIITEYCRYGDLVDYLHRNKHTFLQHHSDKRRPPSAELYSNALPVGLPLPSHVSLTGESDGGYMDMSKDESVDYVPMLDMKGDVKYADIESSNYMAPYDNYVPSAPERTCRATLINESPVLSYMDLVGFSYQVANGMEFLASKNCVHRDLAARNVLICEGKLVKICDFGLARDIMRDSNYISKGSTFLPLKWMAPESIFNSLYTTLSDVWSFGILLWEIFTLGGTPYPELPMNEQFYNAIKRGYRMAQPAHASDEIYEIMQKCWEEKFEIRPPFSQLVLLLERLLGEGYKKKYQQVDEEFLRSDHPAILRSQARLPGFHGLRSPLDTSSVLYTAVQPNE
structure (smiles),measurement,value
"Cn1cc(-c2cn3ncc(C(=O)Nc4sc(C(=O)NCCN5CCCC56CCC6)cc4C#N)c3s2)cn1 [Example 206, N-(5-((2-(5-azaspiro[3.4]octan-5-yl)ethyl)carbamoyl)-3-cyanothiophen-2-yl)-2-(1-methyl-1H-pyrazol-4-yl)pyrazolo[5,1-b]thiazole-7-carboxamide]",IC50,3550 nM
"Cc1ncc(NC(=O)OCCN(C)C2CCCCC2)cc1NC(=O)c1cnn2cc(-c3cnn(C)c3)sc12 [Example 251, 2-(cyclohexyl(methyl)amino)ethyl (6-methyl-5-(2-(1-methyl-1H-pyrazol-4-yl)pyrazolo[5,1-b]thiazole-7-carboxamido)pyridin-3-yl)carbamate]",IC50,1.5 nM
"Cc1cc(C(=O)NCCN2CCCC2(C)C)sc1NC(=O)c1cnn2cc(-c3ccn(C)n3)sc12 [Example 188, N-(5-((2-(2,2-dimethylpyrrolidin-1-yl)ethyl)carbamoyl)-3-methylthiophen-2-yl)-2-(1-methyl-1H-pyrazol-3-yl)pyrazolo[5,1-b]thiazole-7-carboxamide]",IC50,9.5 nM
"Cc1ncc(C(=O)NCCN2C[C@H]3CC[C@@H]2C3)cc1NC(=O)c1cnn2cc(-c3cn(C)nc3C)sc12 [Example 211, N-(5-((2-((1R,4S)-2-azabicyclo[2.2.1]heptan-2-yl)ethyl)carbamoyl)-2-methylpyridin-3-yl)-2-(1,3-dimethyl-1H-pyrazol-4-yl)pyrazolo[5,1-b]thiazole-7-carboxamide]",IC50,0.3 nM
